Measured values taken from patent US20140066595A1, “Modulators of Protein Production in a Human Cell Line and Cell-free Extracts Produced Therefrom” (THERMO FISHER SCIENTIFIC BIOSCIENCES INC., priority 2012, published 2014).
“Also recorded” adds a separate entry of the source.

Experiments:
HeLaS3-Gluc cells [1] = assay: Viability of HeLaS3-Gluc cells treated with amiloride, with or without ER stressors; format: cell-based, human
Method: (§1) HeLaS3-Gluc cells were plated at 10K/well and incubated overnight. Subsequently, they were pre-treated with amiloride and incubated for 1 hour. Amiloride was used at increasing doses, both alone and in the presence of cellular stressors tunicamycin or thapsigargin. When the ER stressors were included, incubation was for 2 hours, at which time Gluc was measured. The media was then changed, and amiloride and ER stressors were added again. This time incubation was overnight. The media was again changed and the amount of Gluc made was measured after two hours. Amiloride was used in amounts of 0-500 μM. Tunicamycin was used in an amount of 5 μM. Thapsigargin was used in an amount of 2 μM.

HeLaS3-Gluc cells [2] = assay: Gluc expression of HeLaS3-Gluc cells treated with amiloride, with or without ER stressors; format: cell-based, human
Method: as §1

[3] = amiloride alone, 0-500 μM, no stress, normalized to no amiloride at 18 hours (FIG. 1)

**Q.** With `N=C(N)NC(=O)c1nc(Cl)c(N)nc1N` [amiloride, 3,5-diamino-6-chloro-N-(diaminomethylene) pyrazine 2-carboxamide] as the compound, how does the “cell viability under ER stress” value (HeLaS3-Gluc cells [1]; amiloride 0-500 μM with tunicamycin 5 μM or thapsigargin 2 μM, normalized to no stress at 18 hours (FIG. 2)) read?
**A.** The value was “does not have an additional effect on cell viability”.

**Q.** What about the “viability of unstressed cells” value (HeLaS3-Gluc cells [1]; [3]) of the same compound?
**A.** Its value is “decrease in viability”.

**Q.** And the “Gluc expression (luciferase output) under ER stress” value (HeLaS3-Gluc cells [2]; amiloride 0-500 μM with tunicamycin 5 μM or thapsigargin 2 μM, 18 hours (FIG. 3))?
**A.** Its value is “rescued by treatment with an increasing amount of amiloride; also recorded: can restore Gluc expression”.

**Q.** What about the “Gluc expression (luciferase output) of unstressed cells” value (HeLaS3-Gluc cells [2]; [3]) of the same compound?
**A.** Its value is “did not lead to increased luciferase output”.
